Key:
Format in all cases: in vivo
[1] = tested on: Brachiaria decumbens (BRADE); assay: Glasshouse adjuvant test with mesotrione (Example 6); settings: mesotrione 45 or 90 g/ha, adjuvant 0.2% v/v or none, 200 l/ha; growth stage 13/14; mean over two rates, three replicates, 7, 14 and 21 days
Method: (§1) Compound 1 was tested in a glasshouse against four weed species using the herbicide mesotrione. A 20% w/w stock emulsion of compound 1 was prepared additionally containing 2% w/w Gohsenol® GL03 and 2% w/w Pluronic® PE10500 as surfactants. Using this, an agrochemical composition was prepared containing 0.2% v/v of the adjuvant in a track sprayer and was applied at a volume of 200 liters per hectare. Mesotrione was applied at either 45 or 90 grams of pesticide per hectare on each of the weed species. The weed species and their growth stage at spraying were Amaranthus tuberculatus (AMATE; growth stage 13/14), Brachiaria decumbens (BRADE; growth stage 13/14), Digitaria sanguinalis (DIGSA; growth stage 14), and Polygonum convolvulus (POLCO; growth stage 11/11.5).
(§2) Each test was replicated three times. The efficacy of the herbicide was assessed visually and expressed as a percentage of the leaf area killed. Samples were assessed at time periods of 7, 14 and 21 days following application. The results shown in Table 6 below are mean averages over the two rates of mesotrione, three replicates and the three assessment timings, and are compared to the efficacy of mesotrione in absence of adjuvant.

[2] = tested on: Digitaria sanguinalis (DIGSA); assay: as above; settings: mesotrione 45 or 90 g/ha, adjuvant 0.2% v/v or none, 200 l/ha; growth stage 14; mean over two rates, three replicates, 7, 14 and 21 days
Method: as §1, §2

[3] = tested on: Polygonum convolvulus (POLCO); assay: as above; settings: mesotrione 45 or 90 g/ha, adjuvant 0.2% v/v or none, 200 l/ha; growth stage 11/11.5; mean over two rates, three replicates, 7, 14 and 21 days
Method: as §1, §2

[4] = tested on: four weed species (ABUTH, CHEAL, DIGSA, SETVI); assay: Glasshouse adjuvant test with nicosulfuron (Example 7), mean across species; settings: nicosulfuron 30 or 60 g/ha, adjuvant 0.2% v/v or none
Method: Compound 1 was tested in a glasshouse against four weed species using the herbicide nicosulfuron. A 20% w/w stock emulsion of compound 1 was prepared additionally containing 2% w/w Gohsenol® GL03 and 2% w/w Pluronic® PE10500 as surfactants. Using this, an agrochemical composition was prepared containing 0.2% v/v of the adjuvant in a track sprayer and was applied at a volume of 200 liters per hectare. Nicosulfuron was applied at either 30 or 60 grams of pesticide per hectare on each of the weed species. The weed species and their growth stage at spraying were Abutilon theophrasti (ABUTH; growth stage 13), Chenopodium album (CHEAL; growth stage 14), Digitaria sanguinalis (DIGSA; growth stage 13), and Setaria viridis (SETVI; growth stage 13).
(§3) Each spray test replicated three times. The efficacy of the herbicide was assessed visually and expressed as a percentage of the leaf area killed. Samples were assessed at time periods of 14 and 21 days following application. The results shown in Table 7 below are mean averages over the two rates of nicosulfuron, three replicates and the two assessment timings, and are compared to the efficacy of nicosulfuron in the absence of an adjuvant.

[5] = tested on: Alopecurus myosuroides (ALOMY); assay: Glasshouse adjuvant test with pinoxaden (Example 8); settings: pinoxaden 7.5 or 15 g/ha, adjuvant 0.2% v/v or none, 200 l/ha; growth stage 13; mean over two rates, three replicates, 14 and 21 days
Method: (§4) The adjuvant shown in example 1 was tested in a glasshouse against four weed species in combination with the herbicide pinoxaden. A 20% w/w stock emulsion of compound 1 was prepared additionally containing 2% w/w Gohsenol® GL03 and 2% w/w Pluronic® PE10500 as surfactants. Using this, an agrochemical composition was prepared containing 0.2% v/v of the adjuvant in a track sprayer and was applied at a volume of 200 liters per hectare. Pinoxaden was applied at either 7.5 or 15 grams of pesticide per hectare on each of the weed species. The weed species and their growth stage at spraying were Alopecurus myosuroides (ALOMY; growth stage 13), Avena fatua (AVEFA; growth stage 12); Lolium perenne (LOLPE; growth stage 13), Setaria viridis (SETVI; growth stage 14).
as §3, with “test was” for “test”, “8” for “7 below”, “pinoxaden,” for “nicosulfuron,”, “pinoxaden” for “nicosulfuron”, “of” for “of an”

Avena fatua (AVEFA) = assay: as above; settings: pinoxaden 7.5 or 15 g/ha, adjuvant 0.2% v/v or none, 200 l/ha; growth stage 12; mean over two rates, three replicates, 14 and 21 days
Method: as §4
as §3, with “test was” for “test”, “8” for “7 below”, “pinoxaden,” for “nicosulfuron,”, “pinoxaden” for “nicosulfuron”, “of” for “of an”

Lolium perenne (LOLPE) = assay: as above; settings: pinoxaden 7.5 or 15 g/ha, adjuvant 0.2% v/v or none, 200 l/ha; growth stage 13; mean over two rates, three replicates, 14 and 21 days
Method: as §4
as §3, with “test was” for “test”, “8” for “7 below”, “pinoxaden,” for “nicosulfuron,”, “pinoxaden” for “nicosulfuron”, “of” for “of an”

Setaria viridis (SETVI) = assay: as above; settings: pinoxaden 7.5 or 15 g/ha, adjuvant 0.2% v/v or none, 200 l/ha; growth stage 14; mean over two rates, three replicates, 14 and 21 days
Method: as §4
as §3, with “test was” for “test”, “8” for “7 below”, “pinoxaden,” for “nicosulfuron,”, “pinoxaden” for “nicosulfuron”, “of” for “of an”

## CCN(CC)C(=O)c1cccc(C)c1 [Compound 1, N, N-diethyl-3-methylbenzamide]
[1]
  Mean percentage kill BRADE: 28.9%
[2]
  Mean percentage kill DIGSA: 28.6%
[3]
  Mean percentage kill POLCO: 87.2%
[4]
  Mean percentage kill, Mean across species: 81.3%
[5]
  Mean percentage kill ALOMY: 22.5%
Avena fatua (AVEFA)
  Mean percentage kill AVEFA: 29.2%
Lolium perenne (LOLPE)
  Mean percentage kill LOLPE: 20.8%
Setaria viridis (SETVI)
  Mean percentage kill SETVI: 15.8%
